In patent US20230093861A1, “RAPAMYCIN ANALOGS AS MTOR INHIBITORS” (Revolution Medicines, Inc., priority 2017, published 2023):

Columns and labels:
P-P70S6K (T389) = experiment: Cell based AlphaLISA assay, inhibition of P-P70S6K (T389) (mTORC1 substrate phosphorylation) in MDA-MB-468 cells; settings: Homo sapiens, 4 h, AlphaLISA, two to four hours at 37° C., read-out: pIC50 for Inhibition of mTORC1 and mTORC2 Substrate Phosphorylation, P-P70S6K-(T389) (converted)
Summary of the method: (§1)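 AlphaLISA SureFire Ultra detection of phosphorylated substrate in lysed cells; duplicate Alpha reads; control-normalized IC50 fitting.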

P-Akt (S473) = experiment: Cell based AlphaLISA assay, inhibition of P-Akt (S473) (mTORC2 substrate phosphorylation) in MDA-MB-468 cells; settings: Homo sapiens, MDA-MB-468, 4 h, AlphaLISA, two to four hours at 37° C., read-out: pIC50 for Inhibition of mTORC1 and mTORC2 Substrate Phosphorylation, p-AKT 1/2/3 -(S473) (converted)
Summary of the method: as §1

P-4E-BP1 (T37/46) = experiment: Cell based AlphaLISA assay, inhibition of P-4E-BP1 (T37/46) (mTORC1 substrate phosphorylation) in MDA-MB-468 cells; settings: Homo sapiens, MDA-MB-468, 4 h, AlphaLISA, two to four hours at 37° C., read-out: pIC50 for Inhibition of mTORC1 and mTORC2 Substrate Phosphorylation, P-4E-BP1-(T37/46) (converted)
Summary of the method: as §1

SMILES	IC50 (P-P70S6K (T389)) [µM]	IC50 (P-Akt (S473)) [µM]	IC50 (P-4E-BP1 (T37/46)) [µM]
CO[C@@H]1C[C@H](C[C@@H](C)[C@@H]2CC(=O)[C@H](C)/C=C(\C)[C@@H](O)[C@@H](OC)C(=O)[C@H](C)C[C@H](C)/C=C/C=C/C=C(\C)[C@@H](c3ccco3)C[C@@H]3CC[C@@H](C)[C@@](O)(O3)C(=O)C(=O)N3CCCC[C@H]3C(=O)O2)CC[C@H]1OCCCCc1cn(CCOCCOCCOCCOCCOCCOCCOCCOCCC(=O)NCCCCn2nc(-c3ccc4oc(N)nc4c3)c3c(N)ncnc32)nn1 [Example 18]	< 0.001	< 0.00316	< 0.00316
CO[C@H]1C[C@@H]2CC[C@@H](C)[C@@](O)(O2)C(=O)C(=O)N2CCCC[C@H]2C(=O)O[C@H]([C@H](C)C[C@@H]2CC[C@H](n3cc(CCCC(=O)NCCOCCOCCOCCC(=O)NCCOCCOCCOCCC(=O)NCCCCn4nc(-c5ccc6oc(N)nc6c5)c5c(N)ncnc54)nn3)[C@H](OC)C2)C[C@@H](OC)[C@H](C)/C=C(\C)[C@@H](O)[C@@H](OC)C(=O)[C@H](C)C[C@H](C)/C=C/C=C/C=C/1C [Example 164]	< 0.001	0.0316 to 1	0.00316 to 0.0316
CO[C@H]1C[C@@H]2CC[C@@H](C)[C@@](O)(O2)C(=O)C(=O)N2CCCC[C@H]2C(=O)O[C@H]([C@H](C)C[C@@H]2CC[C@H](n3cc(CCCC(=O)NCCOCCOCCOCCC(=O)NCCOCCOCCC(=O)NCCCCn4nc(-c5cc6cc(O)ccc6[nH]5)c5c(N)ncnc54)nn3)[C@H](OC)C2)CC(=O)[C@H](C)/C=C(\C)[C@@H](O)[C@@H](OC)C(=O)[C@H](C)C[C@H](C)/C=C/C=C/C=C/1C [Example 129]	0.001 to 0.01	> 1	0.0316 to 1
CO[C@H]1C[C@@H]2CC[C@@H](C)[C@@](O)(O2)C(=O)C(=O)N2CCCC[C@H]2C(=O)O[C@H]([C@H](C)C[C@@H]2CC[C@@H](OCCCCc3cn(CCOCCOCCOCCOCCOCCOCCC(=O)N4CCc5cc(Cn6nc(-c7ccc8oc(N)nc8c7)c7c(N)ncnc76)ccc5C4)nn3)[C@H](OC)C2)CC(=O)[C@H](C)/C=C(\C)[C@@H](O)[C@@H](OC)C(=O)[C@H](C)C[C@H](C)/C=C/C=C/C=C/1C [Example 89]	< 0.001	0.00316 to 0.0316	< 0.00316
CO[C@H]1C[C@@H]2CC[C@@H](C)[C@@](O)(O2)C(=O)C(=O)N2CCCC[C@H]2C(=O)O[C@H]([C@H](C)C[C@@H]2CC[C@@H](O)[C@H](OC)C2)C[C@@H](OC)[C@H](C)/C=C(\C)[C@@H](O)[C@@H](OC)C(=NOCc2cn(CCOCCOCCOCCOCCNC(=O)CCCC(=O)NCCCCn3nc(-c4ccc5oc(N)nc5c4)c4c(N)ncnc43)nn2)[C@H](C)C[C@H](C)/C=C/C=C/C=C/1C [Example 104]	0.001 to 0.01	0.0316 to 1	0.0316 to 1
CO[C@H]1C[C@@H]2CC[C@@H](C)[C@@](O)(O2)C(=O)C(=O)N2CCCC[C@H]2C(=O)O[C@H]([C@H](C)C[C@@H]2CC[C@@H](OCCCCc3cn(CCOCCOCCOCCOCCOCCOCCOCCOCCC(=O)N(C)CCCCn4nc(-c5ccc6oc(N)nc6c5)c5c(N)ncnc54)nn3)[C@H](OC)C2)CC(=O)[C@H](C)/C=C(\C)[C@@H](O)[C@@H](OC)C(=O)[C@H](C)C[C@H](C)/C=C/C=C/C=C/1C [Example 83]	< 0.001	< 0.00316	< 0.00316
CO[C@H]1C[C@@H]2CC[C@@H](C)[C@@](O)(O2)C(=O)C(=O)N2CCCC[C@H]2C(=O)O[C@H]([C@H](C)C[C@@H]2CC[C@H](n3cc(CCCC(=O)NCCOCCOCCOCCC(=O)NCCOCCOCCC(=O)NCCCCn4nc(-c5cc6cc(O)ccc6[nH]5)c5c(N)ncnc54)nn3)[C@H](OC)C2)C[C@@H](OC)[C@H](C)/C=C(\C)[C@@H](O)[C@@H](OC)C(=O)[C@H](C)C[C@H](C)/C=C/C=C/C=C/1C [Example 163]	0.01 to 1	> 1	> 1
